Measurements: patent US20150231109A1, “COMBINATIONS (CATECHINS AND METHOTREXATE) FOR USE IN THE TREATMENT OF MELANOMAS” (UNIVERSIDAD DE MURCIA, priority 2012, published 2015)

Assays:
[1] = tested on: low passage patient-derived melanoma cells bearing MEK and BRAF mutations; test: MTT assay on low passage patient-derived melanoma cell lines with BRAF and MEK1 or MEK2 mutations; assay type: cell-based, human; details: BRAF-inhibitor and MEK-inhibitor resistant lines; MTX/TMECG 1 μM/10 μM, PLX-4720 1 μM
Method: G, MTT assay indicating effects of MTX/TMECG (1 μM/10 μM) and PLX-4720 (1 μM) treatment on low passage patient-derived melanoma cells bearing indicated MEK and BRAF mutations. Cells were treated with vehicle only (•), PLX-4720 ( ), or with a combination of MTX+TMECG (Δ). Note the number of cells at the start of the experiment was at the limit of detection. […] Error bars show mean±SD.
MTX/TMECG was tested against two low passage melanoma cell lines (fewer than 10 passages) derived from patients with activating BRAF mutations that are resistant to both BRAF-inhibitor and MEK-inhibitor therapy, owing to the presence of activating mutations in MEK1 or MEK2 (Nikolaev et al., 2011). In the MTT assays (FIGS. 2G and 5A) a low starting number of cells (2×10^3) was used, so that any proliferation could be readily visualized.
Cell viability was evaluated using the 3-(4,5-dimethylthiazol-2-yl)-2,5-diphenyltetrazolium bromide (MTT) cell proliferation assay.

[2] = tested on: B16/F10 primary splenic tumors; test: Primary spleen tumors after intrasplenic injection of luciferase-tagged B16/F10 cells; assay type: in vivo, mouse
Method: C, Luciferase imaging of control and MTX/TMECG-treated mice 12 days post-tumor cell injection. Beetle luciferin (120 mg/kg of mouse) was injected intraperitoneally. The values (means±s.d.) are representative of three independent experiments. *P=0.007; **P=0.002. […] Xenograft tumors treated with DMSO (vehicle) or MTX/TMECG (1 mg/kg/day and 50 mg/kg/day, respectively) over 14-days. […] Representative images taken from two independent experiments (n=5 for each experiment). Scale bar=200 μm and is applicable to both panels. I, B16/F10 melanoma cells, expressing a luciferase reporter, were injected subcutaneously to mice. Mice were divided in two groups (n=7) and treated with vehicle (DMSO) or MTX/TMECG (1 mg/kg/day and 10 mg/kg/day, respectively) over 21-days. Then, tumors were pooled and dissociated. B16/F10 cells extracted from tumors were examined for their sensitivity to the MTX/TMECG combination (1 μM and 10 μM, respectively) using quantification of the luminescence signal (left panel). […] Scale bar refers to all panels. […] Mice were treated with vehicle, MTX (1 mg/kg/day), and/or TMECG (50 mg/kg/day). […] Scale bar refers to all panels.
A, Luciferase imaging of vehicle (control), MTX, and/or TMECG-treated mice 12 days post-tumor cell injection. Firefly luciferin (120 mg/kg of mouse) was injected intraperitoneally. The values are representative of three independent experiments. […] The number of cells was estimated by extrapolation of the experimental luciferase signal to calibration curves. A straight line with a good linear correlation coefficient (0.998) was obtained by plotting luciferase signal vs number of B16/F10-luc2 cells. Treatment of mice (n=6) started 24 hr after tumor induction (Day 1). For all experiments: *p<0.05 with respect to control mice; #p<0.05 with respect to individual MTX or TMECG treatments.

[3] = Pharmacokinetic studies in mice plasma; assay type: in vivo; details: mouse, ip, male C57BL/6 mice, intra-peritoneal TMECG 50 mg/kg alone or with MTX 50 mg/kg
Method: Pharmacokinetic studies were performed in male C57BL/6 mice after intra-peritoneal injection of MTX (50 mg/kg) and/or TMECG (50 mg/kg). Animals were anesthetized with CO2, and whole blood samples (˜0.5 mL) were collected via cardiac puncture. Samples for drug quantification were collected from different animals (in triplicate) at 5, 15, and 30 min and at 1, 2, 4, and 6 hr post-dose. Whole blood samples were transferred to lithium heparin blood collection tubes, and then centrifuged at 10,000 rpm for 10 min at 4° C. After plasma deproteinization with 5% trichloroacetic acid (TCA), MTX and TMECG plasma concentrations were calculated by HPLC. Pharmacokinetic parameters were estimated using the WinNonlin software package (WinNonlin Professional version 5.1., Pharsight Corporation, CA). WinNonlin model 200 was used for the non-compartmental analysis of the concentration-time data. The area under the plasma concentration-time curve (AUClast) from time 0 to the last point (tlast) with measurable concentration (Clast) was estimated using a linear trapezoidal approximation (AUClast). The elimination half-life (t1/2) was calculated as ln2/kel, where kel (elimination rate constant) was estimated using least squares regression analysis of the concentration-time data obtained during the terminal log-linear elimination phase. The maximum plasma concentrations (Cmax) were estimated directly from the data, with tmax being defined as the time of the first occurrence of Cmax.

SK-MEL-28 melanoma cells = test: HPLC/MS analyses of MTX, TMECG-QM and DHF in whole cell extracts; assay type: cell-based, human; details: SK-MEL-28 whole cell extracts, 24 h, MTX 1 μM and/or TMECG 10 μM; control 3.8 ± 1.1
Method: By way of example, the present inventors have shown that an active agent, such as MTX, may be used to increase TYR expression, thereby increasing the conversion of a catechin to its quinone methide form. The inventors have undertaken HPLC analyses of MTX, TMECG-QM, and DHF in whole cell extracts of SK-MEL-28 melanoma cells that were subjected to MTX (1 μM) and TMECG (10 μM) individual and combined treatments (see Table 1).

[4] = Toxicology in non-tumor inoculated C57BL/6 mice; assay type: in vivo, mouse
Method: FIGS. 4A-N. MTX and TMECG combination therapy is effective in vivo. A, A375 melanoma cells were included in a human reconstructed skin model and were treated with MTX (1 μM) and/or TMECG (10 μM) for 14 days. B, B16/F10 melanoma cells were injected subcutaneously into C57/B16 mice. Images show tumor size 17 days post-injection in control and treated mice. […] C, Luciferase imaging of control and MTX/TMECG-treated mice 12 days post-tumor cell injection. Beetle luciferin (120 mg/kg of mouse) was injected intraperitoneally. The values (means±s.d.) are representative of three independent experiments. *P=0.007; **P=0.002. D, Bioluminescent imaging of livers at 14 days post-intrasplenic injection of B16-F10-luc-G5 cells from untreated and MTX/TMECG-treated mice are shown. E, Quantification of macrometastases (0-10, 10-25 or >25) after treatment with vehicle (control), MTX (1 mg/kg/day), and/or TMECG (50 mg/kg/day). F, Photomicrograph of H&E-stained, 4 μm formalin-fixed, paraffin-embedded liver sections from control (DMSO) and MTX/TMECG-treated mice (1 and 50 mg/kg/day, respectively) (5× magnification). G, MTX activation of MITF and tyrosinase activates the melanoma-specific antifolate activity of TMECG, leading to depletion of cellular dTTP and apoptosis. H, Sections stained with hematoxylin and eosin show the effect of MTX/TMECG on B16/F10 primary splenic tumors. Xenograft tumors treated with DMSO (vehicle) or MTX/TMECG (1 mg/kg/day and 50 mg/kg/day, respectively) over 14-days. […] Representative images taken from two independent experiments (n=5 for each experiment). Scale bar=200 μm and is applicable to both panels. I, B16/F10 melanoma cells, expressing a luciferase reporter, were injected subcutaneously to mice. Mice were divided in two groups (n=7) and treated with vehicle (DMSO) or MTX/TMECG (1 mg/kg/day and 10 mg/kg/day, respectively) over 21-days. Then, tumors were pooled and dissociated. B16/F10 cells extracted from tumors were examined for their sensitivity to the MTX/TMECG combination (1 μM and 10 μM, respectively) using quantification of the luminescence signal (left panel). J, The histogram represents the number of B16/F10-luc2 cells remaining after 3 days of MTX/TMECG treatment with respect to vehicle treated controls (100%). […] K, The morphology of tumor dissociated B16/F10-luc2 cells before and after of MTX/TMECG treatment. Scale bar refers to all panels. L, Histograms represent the number of copies of TYR mRNA for every 1×10^3 copies of β-actin±SD of three independent experiments. […]
To explore the toxicity of TMECG and MTX, these agents (at indicated concentrations) were administrated intradermally to the back of non-tumor inoculated female C57BL/6 mice (n=10), and body weight monitored every other day. […]

B16/F10 melanoma cells = test: Subcutaneous B16/F10 melanoma model in C57BL/6 mice; assay type: in vivo, mouse; details: compared to untreated mice
Method: FIGS. 4A-N. MTX and TMECG combination therapy is effective in vivo. A, A375 melanoma cells were included in a human reconstructed skin model and were treated with MTX (1 μM) and/or TMECG (10 μM) for 14 days. B, B16/F10 melanoma cells were injected subcutaneously into C57/B16 mice. Images show tumor size 17 days post-injection in control and treated mice. […] C, Luciferase imaging of control and MTX/TMECG-treated mice 12 days post-tumor cell injection. Beetle luciferin (120 mg/kg of mouse) was injected intraperitoneally. The values (means±s.d.) are representative of three independent experiments. *P=0.007; **P=0.002. […] E, Quantification of macrometastases (0-10, 10-25 or >25) after treatment with vehicle (control), MTX (1 mg/kg/day), and/or TMECG (50 mg/kg/day). […] B16/F10 cells extracted from tumors were examined for their sensitivity to the MTX/TMECG combination (1 μM and 10 μM, respectively) using quantification of the luminescence signal (left panel). […]
Animals were bred and maintained according to the Spanish legislation on the ‘Protection of Animals used for Experimental and other Scientific Purposes’ and in accordance with the directives of the European community. […] Primary spleen tumors and hepatic metastases at 12 and 14 days, respectively, were analyzed using the IVIS Imaging System (Caliper Life Sciences). […]

proteasome = test: Inhibition of the proteasome; assay type: biochemical; details: data not shown
[5] = target: 5-cytosine DNA methyltransferase-1 (Homo sapiens, UniProt P26358); test: Inhibition of 5-cytosine DNA methyltransferase-1; assay type: biochemical; details: data not shown
Sequence of 5-cytosine DNA methyltransferase-1 (P26358 whole entry): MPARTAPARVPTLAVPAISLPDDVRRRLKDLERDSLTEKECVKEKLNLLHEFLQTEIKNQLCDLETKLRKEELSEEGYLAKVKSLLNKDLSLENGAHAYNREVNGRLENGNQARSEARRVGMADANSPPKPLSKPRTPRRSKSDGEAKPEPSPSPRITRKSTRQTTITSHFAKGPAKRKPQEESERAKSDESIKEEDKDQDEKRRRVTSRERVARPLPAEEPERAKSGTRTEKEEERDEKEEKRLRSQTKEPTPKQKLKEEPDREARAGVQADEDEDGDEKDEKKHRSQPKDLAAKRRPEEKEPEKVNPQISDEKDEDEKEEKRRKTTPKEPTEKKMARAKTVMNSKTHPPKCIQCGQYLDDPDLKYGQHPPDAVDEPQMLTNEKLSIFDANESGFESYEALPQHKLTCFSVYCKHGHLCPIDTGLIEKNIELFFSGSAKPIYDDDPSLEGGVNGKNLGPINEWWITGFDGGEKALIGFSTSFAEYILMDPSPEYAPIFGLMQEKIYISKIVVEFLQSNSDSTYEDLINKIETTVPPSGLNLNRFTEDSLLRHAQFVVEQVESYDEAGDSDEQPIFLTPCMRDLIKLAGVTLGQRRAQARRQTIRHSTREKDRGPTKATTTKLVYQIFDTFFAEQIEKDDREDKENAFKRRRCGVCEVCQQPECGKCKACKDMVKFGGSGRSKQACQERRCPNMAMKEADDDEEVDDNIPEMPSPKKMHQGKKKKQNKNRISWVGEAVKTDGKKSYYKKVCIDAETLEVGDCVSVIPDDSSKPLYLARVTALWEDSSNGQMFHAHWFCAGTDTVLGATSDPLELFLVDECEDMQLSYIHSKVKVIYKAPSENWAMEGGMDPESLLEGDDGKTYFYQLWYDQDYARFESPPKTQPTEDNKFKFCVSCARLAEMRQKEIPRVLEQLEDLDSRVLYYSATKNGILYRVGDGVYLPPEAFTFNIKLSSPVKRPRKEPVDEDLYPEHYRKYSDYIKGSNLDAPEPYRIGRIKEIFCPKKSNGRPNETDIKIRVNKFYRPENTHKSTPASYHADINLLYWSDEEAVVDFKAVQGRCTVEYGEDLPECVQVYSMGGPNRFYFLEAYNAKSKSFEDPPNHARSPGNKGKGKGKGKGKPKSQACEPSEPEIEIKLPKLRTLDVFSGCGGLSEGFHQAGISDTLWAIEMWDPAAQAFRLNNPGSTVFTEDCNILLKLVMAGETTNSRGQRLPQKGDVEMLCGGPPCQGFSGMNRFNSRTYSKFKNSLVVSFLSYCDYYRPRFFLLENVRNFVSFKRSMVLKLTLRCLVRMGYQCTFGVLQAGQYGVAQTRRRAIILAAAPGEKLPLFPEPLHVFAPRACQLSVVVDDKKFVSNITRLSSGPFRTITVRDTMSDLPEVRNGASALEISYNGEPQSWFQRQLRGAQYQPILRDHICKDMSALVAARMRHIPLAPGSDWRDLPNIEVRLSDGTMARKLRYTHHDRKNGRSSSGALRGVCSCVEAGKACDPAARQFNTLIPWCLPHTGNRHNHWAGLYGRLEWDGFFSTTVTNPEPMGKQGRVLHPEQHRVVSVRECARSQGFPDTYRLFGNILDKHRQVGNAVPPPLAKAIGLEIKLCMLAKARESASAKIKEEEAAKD

DHFR = target: T1, DHFR (Homo sapiens, UniProt P00374); details: Sanchez-del-Campo et al., 2009a; cited from earlier work
T1 sequence (P00374 1-187): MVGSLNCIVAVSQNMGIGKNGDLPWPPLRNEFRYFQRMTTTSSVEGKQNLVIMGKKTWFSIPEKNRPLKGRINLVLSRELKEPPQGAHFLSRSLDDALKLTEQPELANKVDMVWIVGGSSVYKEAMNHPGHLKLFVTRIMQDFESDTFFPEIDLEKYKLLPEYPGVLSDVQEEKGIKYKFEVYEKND

glutamate dehydrogenase = glutamate dehydrogenase (Homo sapiens, UniProt P00367); test: Inhibition of glutamate dehydrogenase; assay type: biochemical; details: data not shown
Sequence of glutamate dehydrogenase (P00367 54-558): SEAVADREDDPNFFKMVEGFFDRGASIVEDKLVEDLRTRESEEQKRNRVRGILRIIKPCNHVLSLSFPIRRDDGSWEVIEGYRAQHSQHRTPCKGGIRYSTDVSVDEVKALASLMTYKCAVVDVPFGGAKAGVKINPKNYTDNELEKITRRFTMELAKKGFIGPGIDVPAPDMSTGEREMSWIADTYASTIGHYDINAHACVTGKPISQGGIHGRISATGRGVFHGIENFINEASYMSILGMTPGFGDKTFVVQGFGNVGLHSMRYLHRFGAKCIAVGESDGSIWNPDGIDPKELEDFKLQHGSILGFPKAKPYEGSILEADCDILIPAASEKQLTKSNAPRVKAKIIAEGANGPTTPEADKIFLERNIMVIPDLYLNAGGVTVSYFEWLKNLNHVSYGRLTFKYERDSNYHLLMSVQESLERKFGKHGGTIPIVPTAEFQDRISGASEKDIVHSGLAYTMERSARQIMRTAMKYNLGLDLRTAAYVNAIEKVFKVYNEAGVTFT

**Q.** Which “proliferation (MTT)” value [1] does the source give for `CCCS(=O)(=O)Nc1ccc(F)c(C(=O)c2c[nH]c3ncc(Cl)cc23)c1F` [PLX-4720] here?
**A.** Its value is “failed to impact significantly on proliferation”.

**Q.** Which “necrotic areas in splenic tumors” value ([2]; 14 days treatment, MTX 1 mg/kg/day and/or TMECG 50 mg/kg/day) does the source give for `COc1cc(C(=O)O[C@@H]2Cc3c(O)cc(O)cc3O[C@@H]2c2ccc(O)c(O)c2)cc(OC)c1OC` [TMECG, 3,4,5-trimethoxy-epicatechin-3-gallate] here?
**A.** The value was 11%±3%.

**Q.** What about the “effect on in vivo luciferase signal” value ([2]; MTX or TMECG alone, 12 days post-tumor cell injection) of the same compound?
**A.** The value was “around 2 fold”.

**Q.** And the AUC ([3]; read-out: TMECG Parameters AUC)?
**A.** Its AUC is 79100 ng·h/mL.

**Q.** And the Cmax ([3]; read-out: TMECG Parameters Cmax)?
**A.** The Cmax was 39300 ng/mL.

**Q.** What about the Tmax ([3]; read-out: TMECG Parameters Tmax) of the same compound?
**A.** The Tmax was 5.4 min.

**Q.** And the half-life ([3]; read-out: TMECG Parameters t1/2 (converted))?
**A.** Its half-life is 107 min.

**Q.** And the DHF intracellular concentration (SK-MEL-28 melanoma cells)?
**A.** The DHF intracellular concentration was 4.8 ± 0.9 pmol/10^6 cells.

**Q.** What about the mouse body weight ([4]; TMECG-treated versus untreated groups) of the same compound?
**A.** The mouse body weight was “not significant”.

**Q.** What about the toxicity in vivo ([4]; preliminary observations) of the same compound?
**A.** The toxicity in vivo was “not toxic in vivo”.

**Q.** And the tumor growth (B16/F10 melanoma cells)?
**A.** Its tumor growth is “significantly reduced”.

**Q.** What does the source list for `COc1cc(C(=O)O[C@H](Cc2c(O)cc(O)cc2O)C(=O)c2ccc(O)c(O)c2)cc(OC)c1OC` [TMECG-QM]?
**A.** inhibition of the proteasome (proteasome): does not inhibit; inhibition of 5-cytosine DNA methyltransferase-1 [5]: does not inhibit; inhibition constant for DHFR (DHFR): nanomolar order; inhibition of glutamate dehydrogenase (glutamate dehydrogenase): does not inhibit
